Results on five compounds are retold here after BindingDB's records for doi:10.1021/acsmedchemlett.0c00047 (Centre of Experimental Medicine, 2020).

The experiment is described as follows: Inhibition of SERCA1 in rat INS-1E cells assessed as reduction in cell viability incubated for 24 hrs by MTT assay.
Take `Cc1cc2c3c(c1)-c1c(O)cc(-c4cc5ccc(O)cc5o4)cc1O[C@@]3(c1ccc(O)cc1O)Oc1cc(O)ccc1-2`: the IC50 was found to be 18.2 µM.

Consider `CC(C)=CCc1c(-c2ccc(O)cc2O)oc2c3c(cc(O)c2c1=O)OC(C)(C)C=C3` [Morusin, 3], for which the IC50 was determined as 28.7 µM.

In the case of `CC1(C)Oc2cc3oc(-c4cc(O)cc(O)c4)cc3cc2CC1O` (stereo not given) [Moracin P], the 50% inhibitory concentration (IC50) was 109 µM.

For `CC(C)(O)C1Cc2cc3cc(-c4cc(O)cc(O)c4)oc3cc2O1` (stereo not given) [moracin O], the IC50 came to 111 µM.

As for `COc1cc(O)c([C@@H]2CC(=O)c3c(O)cc(O)cc3O2)cc1C/C=C(\C)CCC=C(C)C`, the half-inhibitory concentration (IC50) was 64.8 µM.

Usually IC50 stands for the point on the concentration scale where inhibition reaches its midpoint.
